Experimental data: PMC6257776, “Synthesis and Antitumor Activity of Diterpenylhydroquinone Derivatives of Natural Ent-Labdanes” (Molecules, 2010)

What was measured:
[1] = system: DU-145 human prostate cancer cells; assay: SRB cell growth inhibition assay, DU-145; format: cell-based; settings: DU-145 cells, 72 h exposure, read-out: Cytotoxicity IC50, DU-145
Protocol: (§1) The antitumor cytotoxicity of the compounds was evaluated in vitro against […] different cancer cell lines: PC-3 and DU-145 human prostate cancer, MCF-7 and MDA-MB-231 breast carcinoma and one non-tumoral cell line, dermal human fibroblasts (DHF). A conventional colorimetric assay was set up to estimate the IC50 values, which represent the concentration of a drug that is required for 50% inhibition in vitro after 72 h of continuous exposure to the test compounds. Four serial dilutions (from 12.5 to 100 µM) for each sample were evaluated in triplicate. The results obtained from these assays are shown in Table 1 and the following general observations can be made as a result: the natural ent-labdanes derivatives 3-5 (IC50 > 100) were the least cytotoxic of the series.
(§2) The colorimetric assay using sulforhodamine B (SRB) was realized following an adaptation of the described method by Skehan et al.. Cells were seeded in 96-well microtiter plates, at5 × 10^3 cells per well in aliquots of 100 µL of DMEM/F-12 medium, and they were allowed to attach to the plate surface by growing in drug-free medium for 18 h. Afterward, compounds samples were added in aliquots (dissolved in EtOH/H2O) to achieve a final concentration of 100, 50, 25 12.5 µM. After 72 h exposure, the in vitro cytotoxicity was measured by the SRB dye assay. Cells were fixed by adding cold 50% (wt/vol) trichloroacetic acid (TCA, 25 µL) and incubating for 60 min at 4 °C. Plates were washed with deionized water and dried; SRB solution (0.1% wt/vol in 1% acetic acid, 50 µL) was added to each microtiter well and incubated for 30 min at room temperature. Unbound SRB is removed by washing with 1% acetic acid. Plates were air-dried and bound stain was solubilized with Tris base (100 µL, 10 mM). Optical densities were read on an automated spectrophotometer plate reader at a single wavelength of 540 nm. Values shown are the % viability vs. ctrl + SD, n = four independent experiments in triplicate.

[2] = system: MCF-7 breast carcinoma cells; assay: SRB cell growth inhibition assay, MCF-7; format: cell-based, human; settings: for IC50: Homo sapiens, MCF7, MCF-7 cells, 72 h exposure, SRB, read-out: Cytotoxicity IC50, MCF-7; for cytotoxic bioactivity against MCF-7 (in words): MCF-7 breast carcinoma
Protocol: as §1, §2

[3] = system: MDA-MB-231 breast carcinoma cells; assay: SRB cell growth inhibition assay, MDA-MB-231; format: cell-based, human; settings: for IC50: Homo sapiens, MDA-MB-231 cells, 72 h exposure, SRB, read-out: Cytotoxicity IC50, MDA-MB-231; for cytotoxic bioactivity against MDA-MB-231 (in words): MDA-MB-231 breast carcinoma
Protocol: as §1, §2

[4] = system: PC-3 human prostate cancer cells; assay: SRB cell growth inhibition assay, PC-3; format: cell-based; settings: PC-3 cells, 72 h exposure, read-out: Cytotoxicity IC50, PC-3
Protocol: as §1, §2

[5] = SRB cell growth inhibition assay, DHF (non-tumoral); format: cell-based; settings: dermal human fibroblasts (DHF), non-tumoral cells, 72 h exposure, read-out: Cytotoxicity IC50, DHF
Protocol: as §1, §2

Compound | IC50 [1] [µM] | IC50 [2] [µM] | cytotoxic bioactivity against MCF-7 (in words) [2] | IC50 [3] [µM] | cytotoxic bioactivity against MDA-MB-231 (in words) [3] | IC50 [4] [µM] | IC50 at 72 h [5] [µM]
C=C1CC[C@@H]2C(C)(C)C[C@@H](OC(C)=O)C[C@@]2(C)[C@@H]1CC/C(C)=C/Cc1cc(OC(C)=O)ccc1OC(C)=O [Compound 9, 2β-Acetoxy-15-phenyl-(22,25-acetoxy)-ent-labda-8(17),13(E)-diene] | 62.9 | 41.1 | showed cytotoxic bioactivity | 33.8 | showed cytotoxic bioactivity | 64.3 | 72.3
C=C1CCC2C(C)(C)CC(O)CC2(C)C1CCC(C)=CCc1c(OC)cc(OC)cc1OC (stereo not drawn) [Compound 10, 2β-Hydroxy-15-phenyl-(22,24,26-trimethoxy)-ent-labda-8(17),13(E)-diene] | > 100 | 45.6 | showed cytotoxic bioactivity | 85.9 | showed cytotoxic bioactivity | 91.2 | > 100
C=C1CC[C@@H]2C(C)(C)C[C@@H](O)C[C@@]2(C)[C@@H]1CC/C(C)=C/Cc1cc(O)ccc1O [Compound 8] | 37.6 | 34 | – | 61.8 | – | 28.2 | > 100
C=C1CC[C@@H]2C(C)(C)C[C@@H](OC(C)=O)C[C@@]2(C)[C@@H]1CC/C(C)=C/Cc1cc(O)ccc1O [Compound 7] | 44.6 | 23.9 | – | 75.9 | – | 21.4 | > 100
C=C1CC[C@@H]2C(C)(C)C[C@@H](OC(C)=O)C[C@@]2(C)[C@@H]1CC/C(C)=C/CO [Compound 3] | > 100 | > 100 | – | > 100 | – | > 100 | > 100
C=C1CC[C@@H]2C(C)(C)C[C@@H](O)C[C@@]2(C)[C@@H]1CC/C(C)=C/COC(C)=O [Compound 11, 2β-Hydroxy-15-acetoxy-ent-labda-8(17),13(E)-diene] | > 100 | 86.9 | – | > 100 | – | 35.6 | > 100
C=C1CC[C@@H]2C(C)(C)C[C@@H](O)C[C@@]2(C)[C@@H]1CC/C(C)=C\CO [Compound 6] | 96.2 | 74.9 | – | 96 | – | > 100 | > 100
C=C1CC[C@@H]2C(C)(C)C[C@@H](O)C[C@@]2(C)[C@@H]1CC/C(C)=C/CO [Compound 4] | > 100 | 90.6 | – | > 100 | – | > 100 | > 100
C=C1CC[C@@H]2C(C)(C)C[C@@H](OC(C)=O)C[C@@]2(C)[C@@H]1CC/C(C)=C\CO [Compound 5] | > 100 | > 100 | – | > 100 | – | > 100 | > 100
